Read-outs that look alike come from different tables or passages of the source. Where no end group is shown, it is not given here.
How the values were obtained:
[1] = human, in vivo; cited from earlier work
target mRNA [2] = conditions: cited from earlier work
HBV [3] = conditions: 715 treatment-naive HBeAg-positive patients, compared with lamivudine; cited from earlier work
HBV [4] = conditions: compared with lamivudine; cited from earlier work
target mRNA [5] = assay: HK polymers as carriers of siRNA (transfection, reduction of target mRNA); type: cell-based; conditions: highly branched polymers with eight terminal branches
[6] = siRNA uptake with HK carriers; type: cell-based; conditions: compared with other HK polymers or non-viral carriers tested

In the case of Cc1cn([C@H]2O[C@@H](CO)[C@H](O)[C@H]2F)c(=O)[nH]c1=O [Clevudine, 2′-fluoro-5-methyl-b-L-arabinofuranosyl-uracil], the “adverse events that halted development” value [1] is given as “myopathy and mitochondrial toxicity”.

In the case of “H^3K4b: four-branched histidine-lysine peptide polymer, branch KHHHKHHHKHHHKHHHK- (also: one branch of four-branched polymer on lysine core)”, the “carrier of siRNA” value (target mRNA [2]) is listed as “effective carriers”.

In the case of “H^2K4b: four-branched histidine-lysine peptide polymer, branch KHKHHKHHKHHKHHKHHKHK- (also: one branch of four-branched polymer on lysine core)”, the “carrier of siRNA” value (target mRNA [2]) is listed as “poor carrier”.

For C=C1[C@H](CO)[C@@H](O)C[C@@H]1n1cnc2c(=O)[nH]c(N)nc21 [Entecavir], the “rate of histological, virological and biochemical improvement” value (HBV [3]) is listed as “significantly higher rate” and the “reducing viral DNA replication in vitro” value (HBV [4]) is listed as “more effective than lamivudine”.

B1: H^3K8b: highly branched histidine-lysine polymer with eight terminal branches and a histidine-rich domain (peptide)
chain 1: HHHKHHHKHHHKHHH
chain 2: HHHKHHHKHHHKHHHKHHHHNHHHH
chain 3: HHHKHHHKHHHKHHHKHHHHNHHHHKKK-NH2
modifications: also: chain 2 K16 side chain amide-linked to another sequence, chain 3 K16, K26, K27, K28 side chains amide-linked to other sequences (branched core)
In the case of B1, the “carrier of siRNA” value (target mRNA [5]) is reported as “highly effective” and the siRNA uptake [6] is reported as “more effectively than other HK polymers or non-viral carriers tested”.
